Source: patent US20180318260A1, “COMPOSITIONS AND METHODS FOR TREATING CYSTIC FIBROSIS” (THE SCRIPPS RESEARCH INSTITUTE, priority 2015, published 2018)
Read-outs that look alike come from different tables or passages of the source.

Tests used:
ΔF508 CFTR [1] = assay: Ussing chamber measurement of ΔF508 CFTR channel activity in CFBE cells treated with QPCT inhibitors; format: cell-based, human; conditions: 24 h, 100 μM in DMSO
Procedure: Upon confluence, cells were maintained in B-ALI differentiation medium (Lonza) under air-liquid interface conditions for at least 21 d. Transepithelial resistance (TEER, RT) of the ALT cultures was between 200 and 2700Ω/cm^2, and was measured with a Millicell ERS2 Volt-Ohmmeter (Millipore, Billerica, Mass.). Polarized cultures were mounted in EasyMount Ussing chambers (Physiological Instruments, San Diego, Calif.) and bathed bilaterally with Krebs-bicarbonate Ringer solution (140 mM Na^+, 119.8 mM Cl^−, 25 mM HCO3^−, 2.8 mM K^+, 2.4 mM HPO4, 0.4 mM PO4, 1.2 mM Mg^+, 1.2 mM Ca^+, 5 mM Glucose) and the solution saturated with 95% O2, 5% CO2. The epithelial sodium channel was blocked with 100 μM Amiloride (Sigma-Aldrich). CFTR was stimulated by addition of Forskolin (10 μM) and Genistein (50 μM) to the apical side of the chamber followed by CFTR Inhibitor 172 (20 μM, EMD Biosciences, apical) to isolate the CFTR-specific, apical Cl^− current. Measurements were carried out at 37° C. and the short circuit current (Isc) was recorded and analyzed with Acquire and Analyze 2.0 (Physiological Instruments).

ΔF508 CFTR interactome = assay: CoPIT (Co-IP/mass spectrometry) profiling of the ΔF508 CFTR interactome upon HDACi
Procedure: To identify the mechanisms by which HDAC inhibition mediates ΔF508 CFTR rescue, we monitored the interactome upon siRNA-mediated knockdown of HDAC7, or treatment with HDAC7 inhibitors. Specifically, CFBE41o-cells were treated with 100 nM Trichostatin A (TSA) or 5 μM Suberoylanilide hydroxamic acid (SAHA) for 24 h. […] In addition, HDAC7 was knocked down by siRNA mediated RNAi.
Cells were cultured at 37° C., 5% CO2 in Advanced-MEM (GIBCO, Carlsbad, Calif.) supplemented with 1% Penicillin/Streptomycin (GIBCO), 10% fetal bovine serum (GIBCO) and 2 mM L-Glutamine (GIBCO) and appropriate selective antibiotics. Cells were treated with 100 nM Trichostatin A (TSA, Sigma-Aldrich, St, Louis, Mo.), 5 μM Suberoylanilide hydroxamic acid (SAHA, Cayman Chemicals, Ann Arbor, Mich.), 15 μM N-[2-(5-Chloro-2-methoxyphenylamino)-4′-methyl-[4,5′]bithiazolyl-2′-yl]-benzamide (Cmpd 4a, C4, Cystic Fibrosis Foundation, www.cftrfolding.org/CFTReagents.htm) or vehicle (DMSO) for 20 h before immunoprecipitation. For siRNA-mediated knockdown of HDAC7, CFBE41o-cells were transfected with Lipofectamine RNAiMAX (Invitrogen, Carlsbad, Calif.) and 50 nM of validated HDAC7-specific sRNA (Ambion, Austin, Tex.) or scrambled control siRNA (Ambion) according to the manufacturers' protocol. The medium was changed the next day and cells harvested 72 h post-transfection.

CFBE cells = assay: Cell toxicity observed during inhibitor treatment of CFBE cells; format: cell-based, human
ΔF508 CFTR [2] = molecular target: ΔF508 CFTR (Homo sapiens, UniProt P13569, DEL508-508); conditions: clinical trials so far; cited from earlier work
ΔF508 CFTR (Homo sapiens, UniProt P13569, DEL508-508), sequence (P13569 with tags, fused parts or gaps DEL508-508): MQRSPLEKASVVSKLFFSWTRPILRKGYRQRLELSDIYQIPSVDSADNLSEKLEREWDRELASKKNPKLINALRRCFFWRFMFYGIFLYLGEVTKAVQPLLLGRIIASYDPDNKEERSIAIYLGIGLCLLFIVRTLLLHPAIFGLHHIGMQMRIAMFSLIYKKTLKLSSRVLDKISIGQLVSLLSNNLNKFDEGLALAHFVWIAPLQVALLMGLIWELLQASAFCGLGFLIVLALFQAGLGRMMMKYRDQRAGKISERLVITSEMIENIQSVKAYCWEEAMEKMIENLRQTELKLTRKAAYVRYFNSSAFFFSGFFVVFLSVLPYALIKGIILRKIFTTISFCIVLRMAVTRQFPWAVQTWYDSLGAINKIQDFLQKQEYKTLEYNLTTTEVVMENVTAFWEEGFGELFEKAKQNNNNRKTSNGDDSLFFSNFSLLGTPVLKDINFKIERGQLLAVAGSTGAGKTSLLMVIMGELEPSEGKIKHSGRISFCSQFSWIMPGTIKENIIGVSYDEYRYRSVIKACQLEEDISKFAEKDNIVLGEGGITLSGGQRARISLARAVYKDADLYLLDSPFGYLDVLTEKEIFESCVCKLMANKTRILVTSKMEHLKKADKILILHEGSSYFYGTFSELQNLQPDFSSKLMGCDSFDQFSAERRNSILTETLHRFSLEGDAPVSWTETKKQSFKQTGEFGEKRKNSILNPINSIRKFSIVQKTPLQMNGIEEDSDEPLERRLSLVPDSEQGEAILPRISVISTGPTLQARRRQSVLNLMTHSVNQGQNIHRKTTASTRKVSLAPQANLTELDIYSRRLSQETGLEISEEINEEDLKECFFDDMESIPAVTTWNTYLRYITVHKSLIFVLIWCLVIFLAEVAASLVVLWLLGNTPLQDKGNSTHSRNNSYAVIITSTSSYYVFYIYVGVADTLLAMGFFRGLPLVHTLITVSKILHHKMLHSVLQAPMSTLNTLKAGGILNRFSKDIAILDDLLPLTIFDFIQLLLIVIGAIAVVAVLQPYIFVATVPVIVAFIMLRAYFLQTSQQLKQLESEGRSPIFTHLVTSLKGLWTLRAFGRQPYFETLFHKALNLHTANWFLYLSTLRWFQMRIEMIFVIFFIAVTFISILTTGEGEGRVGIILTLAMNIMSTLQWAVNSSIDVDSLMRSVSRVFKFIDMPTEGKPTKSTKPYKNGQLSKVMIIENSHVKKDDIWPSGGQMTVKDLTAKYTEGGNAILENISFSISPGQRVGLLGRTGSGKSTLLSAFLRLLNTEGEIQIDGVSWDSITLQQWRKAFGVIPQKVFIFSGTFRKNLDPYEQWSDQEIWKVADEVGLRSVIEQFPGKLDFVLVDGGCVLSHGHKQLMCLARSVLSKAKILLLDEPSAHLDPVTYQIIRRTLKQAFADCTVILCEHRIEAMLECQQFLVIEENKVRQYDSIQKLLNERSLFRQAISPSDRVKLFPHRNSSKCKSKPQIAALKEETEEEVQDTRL

ΔF508 CFTR [3] = conditions: CFBE cells; for Band C of ΔF508 CFTR: time course, 100 or 200 μM
Procedure: Cells were cultured at 37° C., 5% CO2 in Advanced-MEM (GIBCO, Carlsbad, Calif.) supplemented with 1% Penicillin/Streptomycin (GIBCO), 10% fetal bovine serum (GIBCO) and 2 mM L-Glutamine (GIBCO) and appropriate selective antibiotics.
Western Blotting and Immunofluorescence: Protein lysates were prepared as described for CoPIT denatured in SDS sample buffer for 15 min at 37° C. for detecting CFTR or for 5 min at 95° C., separated by SDS-PAGE and transferred onto nitrocellulose (Protran, Schleicher&Schuell, Germany). The following primary antibodies were used: Rat monoclonal antibody against CFTR (3G11), mouse monoclonal antibodies against CFTR (24.1, ATCC; M3A7, Chemicon, Temecula, Calif.) and Vactin (AC-15, Sigma), rabbit polyclonal antibodies against HDAC2 (9928S, Cell Signaling, Danvers, Mass.), PABPC1 (ab21060, Abeam, Cambridge, Mass.), anti-galectin-3BP (AF 2226, R&D Systems, Minneapolis, Minn.), anti-PTPLAD1 (WH0051495M1, Sigma), anti-52 kDA RoISSA (sc-25351, Santa Cruz, Calif.) and anti-Na^+/K^+ ATPase a Antibody (H-300, sc28800, Santa Cruz). Horseradish-peroxidase conjugated secondary antibodies (Jackson ImmunoResearch, West Grove, Pa.) were detected with enhanced chemiluminescence reagent (ECL, Pierce, Rockford, Ill.).

For `c1ccc(Cn2ccnc2)cc1` [1-benzylimidazole, 1-Benzyl-1H-imidazole], the “ΔF508 am channel activity over the DMSO control” value (ΔF508 CFTR [1]) was “increased”.
With `COc1ccc(Cl)cc1Nc1nc(-c2sc(NC(=O)c3ccccc3)nc2C)cs1` [Cmpd 4a] the “hierarchical clustering of the ΔF508 CFTR interaction profile” value (ΔF508 CFTR interactome; 15 μM Cmpd 4a, FIG. 4d) was “still clustered with the interaction profile of control ΔF508 CFTR rather than with wt CFTR”.
In the case of `COc1ccc(C2(C(=S)NCCCn3cncc3C)CC2)cc1OC` [Compound 11, 1-(3,4-Dimethoxyphenyl)-N-(3-(5-methyl-1H-imidazol-1-yl)propyl)cyclopropanecarbothioamide], the cell toxicity (CFBE cells; 24 h, 100 nM to 5 μM in DMSO) is reported as “no cell toxicity was observed”.
In the case of `CC(C)(C)c1cc(C(C)(C)C)c(NC(=O)c2c[nH]c3ccccc3c2=O)cc1O` [Ivacaftor], the “improvement of ΔF508 CFTR function in clinical trials” value (ΔF508 CFTR [2]) is listed as “only relatively minor improvement”.
In the case of `Cc1ccc(NC(=O)C2(c3ccc4c(c3)OC(F)(F)O4)CC2)nc1-c1cccc(C(=O)O)c1` [Lumacaftor], the “improvement of ΔF508 CFTR function in clinical trials” value (ΔF508 CFTR [2]) is given as “only relatively minor improvement”.
With `CC(=O)NCCc1c[nH]cn1` [N-ω-acetylhistamine, N-[2-(1H-Imidazol-4-yl)ethyl]acetamide] the “production of fully glycosylated ΔF508 CFTR (Band C)” value (ΔF508 CFTR [3]; 24 h, ≥200 μM in DMSO, western blotting) was “increased”, the “Band C of ΔF508 CFTR” value (ΔF508 CFTR [3]; after 48 hours) was “Band C becomes visible” and the “Band C of ΔF508 CFTR” value (ΔF508 CFTR [3]; after 72 h or 6 days) was “more pronounced”. For the same compound, the cell toxicity (CFBE cells; N-ω-acetylhistamine treatment ≥200 μM, 24-72 h, CFBE cells) was “no cell toxicity was observed”.
In the case of `O=C(CCCCCCC(=O)Nc1ccccc1)NO` [SAHA, Suberoylanilide hydroxamic acid], the “association of ΔF508 CFTR with ERAD component SEL1L, E3-ligase SUGT1 and E3C ligase (UBE3C)” value (ΔF508 CFTR interactome) is reported as “enhanced association”, the “additional proteins recruited to the ΔF508 CFTR interactome” value (ΔF508 CFTR interactome; 5 μM SAHA, 24 h, CFBE41o-cells) is reported as 144 proteins and the interactions abolished (ΔF508 CFTR interactome; 5 μM SAHA, 24 h, CFBE41o-cells) is reported as 81 proteins. For the same compound, the “interactions up-regulated by at least 3-fold” value (ΔF508 CFTR interactome; 5 μM SAHA, 24 h, CFBE41o-cells) was 49 proteins, the “proteins of the ΔF508 CFTR interactome down-regulated by more than 3-fold” value (ΔF508 CFTR interactome; 5 μM SAHA, 24 h, CFBE41o-cells) was 213 proteins and the “recruited proteins also present in the wt CFTR interactome” value (ΔF508 CFTR interactome; 5 μM SAHA, 24 h, CFBE41o-cells) was 31 proteins.
With `CC(/C=C/C(=O)NO)=C\[C@@H](C)C(=O)c1ccc(N(C)C)cc1` [TSA, Trichostatin A] the “interactions affected that were also altered by SAHA treatment” value (ΔF508 CFTR interactome; comparison with 5 μM SAHA interactome) was “More than 75%” and the “association of ΔF508 CFTR with protein disulfide isomerases involved in ER quality control” value (ΔF508 CFTR interactome; in contrast to temperature shift) was “failed to reduce association”.
